According to patent US8563545B2, “Compound useful for the treatment of degenerative and inflammatory diseases” (Galapagos NV, priority 2009, dated 2013):
Like-named read-outs stand apart in the source and are kept apart here.

Key:
rat CIA model = test: Rat collagen induced arthritis (CIA) model; format: in vivo; set-up: key to Clinical Assessment End point score / Clinical Assessment AUC Score / Paw swelling / Larsen' Score: a “*” indicates that there was a statistically significant improvement in the score, p 0.05 vs. untreated control
Procedure: Completed Freund's adjuvant (CFA) and incomplete Freund's adjuvant (IFA) were purchased from Difco. Bovine collagen type II (CII), lipopolysaccharide (LPS), and Enbrel was obtained from Chondrex (Isle d'Abeau, France); Sigma (P4252, L′Isle d'Abeau, France), Whyett (25 mg injectable syringe, France) Acros Organics (Palo Alto, Calif.), respectively. All other reagents used were of reagent grade and all solvents were of analytical grade.
Dark Agouti rats (male, 7-8 weeks old) were obtained from Harlan Laboratories (Maison-Alfort, France). Rats were kept on a 12 hr light/dark cycle (0700-1900). Temperature was maintained at 22° C., and food and water were provided ad libitum.
One day before the experiment, CII solution (2 mg/mL) was prepared with 0.05 M acetic acid and stored at 4° C. Just before the immunization, equal volumes of adjuvant (IFA) and CII were mixed by a homogenizer in a pre-cooled glass bottle in an ice water bath. Extra adjuvant and prolonged homogenization may be required if an emulsion is not formed. 0.2 mL of the emulsion was injected intradermally at the base of the tail of each rat on day 1, a second booster intradermal injection (CII solution at 2 mg/mL in CFA 0.1 mL saline) was performed on day 9. This immunization method was modified from published methods (Sims et al, 2004; Jou et al., 2005).
The therapeutic effects of the compounds were tested in the rat CIA model. Rats were randomly divided into equal groups and each group contained 10 rats. All rats were immunized on day 1 and boosted on day 9. Therapeutic dosing lasted from day 16 to day 30. The negative control group was treated with vehicle (MC 0.5%) and the positive control group with Enbrel (10 mg/kg, 3× week, s.c.). A compound of interest was typically tested at 3 doses, e.g. 3, 10, 30 mg/kg, p.o.
Arthritis is scored according to the method of Khachigian 2006, Lin et al 2007 and Nishida et al. 2004). The swelling of each of the four paws is ranked with the arthritic score as follows: 0-no symptoms; 1-mild, but definite redness and swelling of one type of joint such as the ankle or wrist, or apparent redness and swelling limited to individual digits, regardless of the number of affected digits; 2-moderate redness and swelling of two or more types of joints; 3-severe redness and swelling of the entire paw including digits; 4-maximally inflamed limb with involvement of multiple joints (maximum cumulative clinical arthritis score 16 per animal) (Nishida et al., 2004).
The area under the curve (AUC) from day 1 to day 14 was calculated for each individual rat. The AUC of each animal was divided by the average AUC obtained for the vehicle in the study from which the data on that animal was obtained and multiplied by 100 (i.e. the AUC was expressed as a percentage of the average vehicle AUC per study).
The clinical score difference for each animal was divided by the average clinical score difference obtained for the vehicle in the study from which the data on that animal was obtained and multiplied by 100 (i.e. the difference was expressed as a percentage of the average clinical score difference for the vehicle per study).
X-ray photos were taken of the hind paws of each individual animal. […]

[1] = system: JAK1-dependent pathway (IL-6 stimulated STAT1 phosphorylation in CD4+ lymphocytes) in human whole blood; test: cells; settings: Lymphocyte, read-out: pIC50 in the inhibition of STAT1 phosphorylation (converted)
Procedure: Therefore, blood was taken from human volunteers who gave informed consent. Blood was then equilibrated for 30 minutes at 37° C. under gentle rocking, then aliquoted in Eppendorf tubes. Compound was added at different concentrations and incubated at 37° C. for 30 minutes under gentle rocking and subsequently stimulated for 20 minutes at 37° C. under gentle rocking with interleukin 6 (IL-6) for JAK1-dependent pathway stimulation or GM-CSF for JAK2-dependent pathway stimulation. Phospho-STAT1 and phospho-STAT5 were then evaluated using FACS analysis.
The increase in phosphorylation of STAT1 by IL-6 in lymphocytes was measured using anti phospho-STAT1 antibody by FACS.
A 3-fold dilution series of the compound was prepared in DMSO (10 mM stock solution). Control-treated samples received DMSO instead of compound. All samples were incubated with a 1% final DMSO concentration.
Human blood was collected in heparinized tubes. The blood was divided in aliquots of 148.54 μl. […]
50,000 total events were counted and Phospho-STAT1 positive cells were measured after gating on CD4+ cells, in the lymphocyte gate. Data were analyzed using the FACSDiva software and the percentage inhibition of IL-6 stimulation calculated on the percentage of positive cells for phospho-STAT1 on CD4+ cells.

[2] = system: JAK1-dependent signaling pathway (IFNα induced pSTAT1) in human whole blood; test: tissue or blood; settings: read-out: pIC50 for inhibiting the INFα induced increase of pSTAT1 levels (converted)
Procedure: The samples were incubated at 37° C. for 30 min.
Absorbance was measured at 450 nm.

[3] = Steady state PK in rat CIA model; format: in vivo; settings: plasma; for AUC(0-t): read-out: AUC (0-24 h); for half-life: read-out: T½ (converted)
Procedure: At day 7 or 11, blood samples were collected at the retro-orbital sinus with lithium heparin as anti-coagulant at the following time points: predose, 1, 3 and 6 hrs. Whole blood samples were centrifuged and the resulting plasma samples were stored at −20° C. pending analysis. Plasma concentrations of each test compound were determined by an LC-MS/MS method in which the mass spectrometer was operated in positive electrospray mode. Pharmacokinetic parameters were calculated using Winnonlin® (Pharsight®, United States) and it was assumed that the predose plasma levels were equal to the 24 hrs plasma levels.

JAK1 = JAK1 (Homo sapiens (Human), UniProt P23458); test: JAK1 inhibition assay; format: biochemical
Procedure: Plates were washed 6 times with 300 μL per well of a 75 mM phosphoric acid solution and the bottom of the plates was sealed. 40 μL/well of Microscint-20 was added, the top of the plates was sealed and readout was performed using the Topcount (Perkin Elmer). Kinase activity was calculated by subtracting counts per minute (cpm) obtained in the presence of a positive control inhibitor (10 μM staurosporine) from cpm obtained in the presence of vehicle. The ability of a test compound to inhibit this activity was determined as:
Percentage inhibition=((cpm determined for sample with test compound present−cpm determined for sample with positive control inhibitor)divided by(cpm determined in the presence of vehicle−cpm determined for sample with positive control inhibitor))*100.
Dose dilution series were prepared for the compounds enabling the testing of dose-response effects in the JAK1 assay and the calculation of the IC50 for each compound.

[4] = 0.1 mg/kg/day, normalized score
[5] = 0.3 mg/kg/day, normalized score

JAK1, sequence (P23458 850-1154): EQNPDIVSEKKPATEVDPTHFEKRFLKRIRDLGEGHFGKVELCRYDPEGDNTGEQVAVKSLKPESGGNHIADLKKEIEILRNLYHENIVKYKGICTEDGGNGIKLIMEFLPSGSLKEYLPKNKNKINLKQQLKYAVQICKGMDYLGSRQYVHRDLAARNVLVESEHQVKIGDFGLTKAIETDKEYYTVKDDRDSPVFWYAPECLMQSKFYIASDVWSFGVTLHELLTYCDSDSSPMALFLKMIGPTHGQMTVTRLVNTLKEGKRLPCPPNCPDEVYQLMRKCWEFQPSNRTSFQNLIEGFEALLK

Structure (SMILES): O=C(Nc1nc2cccc(-c3ccc(CN4CCS(=O)(=O)CC4)cc3)n2n1)C1CC1 [Compound 1, Cyclopropanecarboxylic acid {5-[4-(1,1-dioxo-1-thiomorpholin-4-ylmethyl)-phenyl]-[1,2,4]triazolo [1,5-a]pyridin-2-yl}-amide]
- improvement in efficacy over Compound 2 when the oral doses are compared (rat CIA model): 100 fold
- Clinical Assessment AUC Score (rat CIA model; [4]): *
- Clinical Assessment End point score (rat CIA model; [4]): *
- Paw swelling (rat CIA model; 0.3 mg/kg/day): *
- Clinical Assessment AUC Score (rat CIA model; [5]): *
- Clinical Assessment End point score (rat CIA model; [5]): *
- Paw swelling (rat CIA model; 1 mg/kg/day): *
- Clinical Assessment AUC Score (rat CIA model; 1 mg/kg/day, normalized score): *
- Clinical Assessment End point score (rat CIA model; 1 mg/kg/day, normalized score): *
- Larsen' Score (rat CIA model; 3 mg/kg/day): *
- Paw swelling (rat CIA model; 3 mg/kg/day): *
- Clinical Assessment AUC Score (rat CIA model; 3 mg/kg/day, normalized score): *
- Clinical Assessment End point score (rat CIA model; 3 mg/kg/day, normalized score): *
- normalized clinical score values (AUC or difference from day 1 to day 14) (rat CIA model; dose of 0.1 mg/kg): statistically significant improvements
- paw swelling readout (rat CIA model; dose of 0.3 mg/kg): statistically significant increase
- Larsen score (rat CIA model; dose of 3 mg/kg): statistically significant increase
- IC50 [1]: 832 nM
- IC50 [2]: 589 nM
- Cmax ([3]; PO 0.1 mg/kg/day): 5.18 ng/mL
- Tmax ([3]; PO 0.1 mg/kg/day): 3 h
- AUC(0-t) ([3]; PO 0.1 mg/kg/day): 30 ng·h/mL
- Cmax ([3]; PO 0.3 mg/kg/day): 19.3 ng/mL
- Tmax ([3]; PO 0.3 mg/kg/day): 1 h
- AUC(0-t) ([3]; PO 0.3 mg/kg/day): 163 ng·h/mL
- Cmax ([3]; PO 1 mg/kg/day): 102 ng/mL
- Tmax ([3]; PO 1 mg/kg/day): 1 h
- AUC(0-t) ([3]; PO 1 mg/kg/day): 931 ng·h/mL
- half-life ([3]; PO 1 mg/kg/day): 3.6 h
- Cmax ([3]; PO 3 mg/kg/day): 363 ng/mL
- Tmax ([3]; PO 3 mg/kg/day): 1 h
- AUC(0-t) ([3]; PO 3 mg/kg/day): 1930 ng·h/mL
- half-life ([3]; PO 3 mg/kg/day): 5.6 h
- Cmax ([3]; PO 10 mg/kg/day): 1170 ng/mL
- Tmax ([3]; PO 10 mg/kg/day): 1 h
- AUC(0-t) ([3]; PO 10 mg/kg/day): 7170 ng·h/mL
- half-life ([3]; PO 10 mg/kg/day): 4.5 h
- Cmax ([3]; PO 30 mg/kg/day): 3800 ng/mL
- Tmax ([3]; PO 30 mg/kg/day): 1 h
- AUC(0-t) ([3]; PO 30 mg/kg/day): 27800 ng·h/mL
- half-life ([3]; PO 30 mg/kg/day): 3.9 h

Structure (SMILES): O=C(Nc1nc2cccc(-c3ccc(CN4CCOCC4)cc3)n2n1)C1CC1 [Compound 2, N-(5-(4-(morpholinomethyl)phenyl)-[1,2,4]triazolo[1,5-a]pyridin-2-yl)cyclopropanecarboxamide]
- Clinical Assessment End point score (rat CIA model; 10 mg/kg/day): *
- Clinical Assessment End point score (rat CIA model; 30 mg/kg/day): *
- Larsen' Score (rat CIA model; 30 mg/kg/day): *
- Paw swelling (rat CIA model; 30 mg/kg/day): *
- normalized clinical score values (rat CIA model; dose of 10 mg/kg): statistically significant improvements
- Larsen score (rat CIA model; dose of 30 mg/kg): statistically significant increase
- paw swelling readout (rat CIA model; dose of 30 mg/kg): statistically significant increase
- Cmax ([3]; PO 10 mg/kg/day): 867 ng/mL
- Tmax ([3]; PO 10 mg/kg/day): 1 h
- AUC(0-t) ([3]; PO 10 mg/kg/day): 2020 ng·h/mL
- half-life ([3]; PO 10 mg/kg/day): 1.17 h
- Cmax ([3]; PO 30 mg/kg/day): 2630 ng/mL
- Tmax ([3]; PO 30 mg/kg/day): 1 h
- AUC(0-t) ([3]; PO 30 mg/kg/day): 7810 ng·h/mL
- half-life ([3]; PO 30 mg/kg/day): 3.36 h

Structure (SMILES): O=C(Nc1nc2cccc(-c3ccc(C(=O)N4CCS(=O)(=O)CC4)cc3)n2n1)C1CC1 [Compound 10, Cyclopropanecarboxylic acid {5-[4-(1,1-dioxo-1-thiomorpholine-4-carbonyl)-phenyl]-[1,2,4]triazolo [1,5-a]pyridin-2-yl}-amide]
- IC50 (JAK1): 18.2 nM

Structure (SMILES): O=C(Nc1nc2cccc(-c3ccc(CN4CCC(F)(F)CC4)cc3)n2n1)C1CC1 [Compound 11, Cyclopropanecarboxylic acid {5-[4-(4,4-difluoro-piperidin-1-ylmethyl)-phenyl]-[1,2,4]triazolo [1,5-a]pyridin-2-yl}-amide]
- IC50 (JAK1): 7.69 nM
